Data reported in PubChem BioAssay (NCI).
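Tested at 5 concentrations; 48 h exposure; 96-well plates; endpoints linearly interpolated, else capped at highest concentration. Abbreviation: GI50, concentration required for 50% inhibition of growth. TGI: total growth inhibition.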

What was measured:
Assay in all cases: inhibition of tumour cell growth, NCI panel, 48 h
786-0 renal = test system: 786-0 renal
A498 renal = test system: A498 renal
A549 NSCLC = test system: A549 NSCLC
ACHN renal = test system: ACHN renal
BT-549 breast = test system: BT-549 breast
CAKI-1 renal = test system: CAKI-1 renal
CCRF-CEM leukemia = test system: CCRF-CEM leukemia
COLO 205 colon = test system: COLO 205 colon
DU-145 prostate = test system: DU-145 prostate
EKVX NSCLC = test system: EKVX NSCLC
HCC-2998 colon = test system: HCC-2998 colon
HCT-116 colon = test system: HCT-116 colon
HCT-15 colon = test system: HCT-15 colon
HL-60(TB) leukemia = test system: HL-60(TB) leukemia
HOP-62 NSCLC = test system: HOP-62 NSCLC
HOP-92 NSCLC = test system: HOP-92 NSCLC
HS 578T breast = test system: HS 578T breast
HT29 colon = test system: HT29 colon
IGROV1 ovarian = test system: IGROV1 ovarian
K-562 leukemia = test system: K-562 leukemia
KM12 colon = test system: KM12 colon
LOX IMVI melanoma = test system: LOX IMVI melanoma
M14 melanoma = test system: M14 melanoma
MALME-3M melanoma = test system: MALME-3M melanoma
MCF7 breast = test system: MCF7 breast
MDA-MB-231 breast = test system: MDA-MB-231 breast
MDA-MB-435 = test system: MDA-MB-435
MOLT-4 leukemia = test system: MOLT-4 leukemia
NCI-H226 lung = test system: NCI-H226 lung
NCI-H23 lung = test system: NCI-H23 lung
NCI-H460 lung = test system: NCI-H460 lung
NCI-H522 lung = test system: NCI-H522 lung
NCI/ADR-RES ovarian = test system: NCI/ADR-RES ovarian
OVCAR-3 ovarian = test system: OVCAR-3 ovarian
OVCAR-4 ovarian = test system: OVCAR-4 ovarian
OVCAR-5 ovarian = test system: OVCAR-5 ovarian
OVCAR-8 ovarian = test system: OVCAR-8 ovarian
PC-3 prostate = test system: PC-3 prostate
RPMI-8226 leukemia = test system: RPMI-8226 leukemia
RXF 393 renal = test system: RXF 393 renal
SF-268 CNS = test system: SF-268 CNS
SF-295 CNS = test system: SF-295 CNS
SF-539 CNS = test system: SF-539 CNS
SK-MEL-2 melanoma = test system: SK-MEL-2 melanoma
SK-MEL-28 melanoma = test system: SK-MEL-28 melanoma
SK-MEL-5 melanoma = test system: SK-MEL-5 melanoma
SK-OV-3 ovarian = test system: SK-OV-3 ovarian
SN12C renal = test system: SN12C renal
SNB-19 CNS = test system: SNB-19 CNS
SR leukemia = test system: SR leukemia
SW-620 colon = test system: SW-620 colon
T-47D breast = test system: T-47D breast
TK-10 renal = test system: TK-10 renal
U251 CNS = test system: U251 CNS
UACC-257 melanoma = test system: UACC-257 melanoma
UACC-62 melanoma = test system: UACC-62 melanoma
UO-31 renal = test system: UO-31 renal

## Cc1ccc(C2=Nc3c(N)nc(N)nc3NC(c3cccc(Nc4ccnc5cc(C(F)(F)F)ccc45)c3)C2)cc1 (centres undefined)
786-0 renal
  GI50: 1510 nM
  TGI: 2900 nM
A498 renal
  GI50: 2150 nM
  TGI: 8020 nM
A549 NSCLC
  GI50: 2880 nM
  TGI: 10700 nM
ACHN renal
  GI50: 2800 nM
  TGI: 11100 nM
BT-549 breast
  GI50: 1660 nM
  TGI: 3360 nM
CAKI-1 renal
  GI50: 2290 nM
  TGI: 8710 nM
CCRF-CEM leukemia
  GI50: 2210 nM
  TGI: 5730 nM
COLO 205 colon
  GI50: 1710 nM
  TGI: 3680 nM
DU-145 prostate
  GI50: 2780 nM
  TGI: 6520 nM
EKVX NSCLC
  GI50: 2910 nM
  TGI: 11500 nM
HCC-2998 colon
  GI50: 1770 nM
  TGI: 3330 nM
HCT-116 colon
  GI50: 1610 nM
  TGI: 2960 nM
HCT-15 colon
  GI50: 1760 nM
  TGI: 3570 nM
HL-60(TB) leukemia
  GI50: 2380 nM
  TGI: 5540 nM
HOP-62 NSCLC
  GI50: 2660 nM
  TGI: 9400 nM
HOP-92 NSCLC
  GI50: 1350 nM
  TGI: 2900 nM
HS 578T breast
  GI50: 1660 nM
  TGI: 4460 nM
HT29 colon
  GI50: 2460 nM
  TGI: 5890 nM
IGROV1 ovarian
  GI50: 1890 nM
  TGI: 4770 nM
K-562 leukemia
  GI50: 1370 nM
  TGI: 6980 nM
KM12 colon
  GI50: 1710 nM
  TGI: 3630 nM
LOX IMVI melanoma
  GI50: 1740 nM
  TGI: 3300 nM
M14 melanoma
  GI50: 1720 nM
  TGI: 3430 nM
MALME-3M melanoma
  GI50: 1860 nM
  TGI: 3870 nM
MCF7 breast
  GI50: 1840 nM
  TGI: 4990 nM
MDA-MB-231 breast
  GI50: 1670 nM
  TGI: 3260 nM
MDA-MB-435
  GI50: 1200 nM
  TGI: 2630 nM
MOLT-4 leukemia
  GI50: 2430 nM
  TGI: 6430 nM
NCI-H226 lung
  GI50: 4880 nM
  TGI: 22300 nM
NCI-H23 lung
  GI50: 2180 nM
  TGI: 5580 nM
NCI-H460 lung
  GI50: 1870 nM
  TGI: 3680 nM
NCI-H522 lung
  GI50: 1560 nM
  TGI: 3490 nM
NCI/ADR-RES ovarian
  GI50: 2290 nM
  TGI: 6150 nM
OVCAR-3 ovarian
  GI50: 1780 nM
  TGI: 3530 nM
OVCAR-4 ovarian
  GI50: 3020 nM
  TGI: 14000 nM
OVCAR-5 ovarian
  GI50: 3690 nM
  TGI: 15700 nM
OVCAR-8 ovarian
  GI50: 2310 nM
  TGI: 5600 nM
PC-3 prostate
  GI50: 1590 nM
  TGI: 4380 nM
RPMI-8226 leukemia
  GI50: 1900 nM
  TGI: 4700 nM
RXF 393 renal
  GI50: 1410 nM
  TGI: 2870 nM
SF-268 CNS
  GI50: 1930 nM
  TGI: 4190 nM
SF-295 CNS
  GI50: 1560 nM
  TGI: 3170 nM
SF-539 CNS
  GI50: 1770 nM
  TGI: 3490 nM
SK-MEL-2 melanoma
  GI50: 1950 nM
  TGI: 4050 nM
SK-MEL-28 melanoma
  GI50: 1700 nM
  TGI: 3330 nM
SK-MEL-5 melanoma
  GI50: 1600 nM
  TGI: 2980 nM
SK-OV-3 ovarian
  GI50: 3560 nM
  TGI: 13400 nM
SN12C renal
  GI50: 2030 nM
  TGI: 4710 nM
SNB-19 CNS
  GI50: 2270 nM
  TGI: 7080 nM
SR leukemia
  GI50: 1530 nM
  TGI: 5440 nM
SW-620 colon
  GI50: 1700 nM
  TGI: 3520 nM
T-47D breast
  GI50: 2220 nM
  TGI: 8730 nM
TK-10 renal
  GI50: 4110 nM
  TGI: 16500 nM
U251 CNS
  GI50: 1820 nM
  TGI: 3620 nM
UACC-257 melanoma
  GI50: 2120 nM
  TGI: 4420 nM
UACC-62 melanoma
  GI50: 1700 nM
  TGI: 3460 nM
UO-31 renal
  GI50: 1510 nM
  TGI: 3030 nM
